Laboratory results as given in patent US5622966A, “7-substituted quinolones and naphthyridones as antibacterial agents” (Warner-Lambert Company, priority 1995, dated 1997).
In brackets after ≈: the same amount, converted by molar mass.

What was measured:
Assay in all cases: In vitro antibacterial activity, microtitration dilution method (MIC)
Assay type in all cases: cell-based
S. aureus R = conditions: Staphylococcus aureus, read-out: Minimal Inhibitory Concentration MIC
Source text: (§1) The compounds of the invention display antibacterial activity when tested by the microtitration dilution method as described in Heifetz, et al, Antimicr. Agents & Chemoth. 6:124 (1974), which is incorporated herein by reference.
(§2) By use of the above reference method, the following minimum inhibitory concentration value (MICs in μg/mL) shown in Table I were obtained for representative compounds of the invention.

Streptococcus faec. = conditions: read-out: Minimal Inhibitory Concentration MIC
Source text: as §1, §2

S. aureus S = conditions: Staphylococcus aureus, read-out: Minimal Inhibitory Concentration MIC
Source text: as §1, §2

Streptococcus pyog. = conditions: read-out: Minimal Inhibitory Concentration MIC
Source text: as §1, §2

Kleb. pneu. = conditions: read-out: Minimal Inhibitory Concentration MIC
Source text: as §1, §2

E. coli Vogel = conditions: Escherichia coli, read-out: Minimal Inhibitory Concentration MIC
Source text: as §1, §2

Streptococcus pneum. = conditions: read-out: Minimal Inhibitory Concentration MIC
Source text: as §1, §2

Enter. cloac. = conditions: read-out: Minimal Inhibitory Concentration MIC
Source text: as §1, §2

Pseu. aeru. = conditions: read-out: Minimal Inhibitory Concentration MIC
Source text: as §1, §2

Prot. rettg. = conditions: read-out: Minimal Inhibitory Concentration MIC
Source text: as §1, §2

| Compound | MIC (S. aureus R) [µg/mL] | MIC (Streptococcus faec.) [µg/mL] | MIC (S. aureus S) [µg/mL] | MIC (Streptococcus pyog.) [µg/mL] | MIC (Kleb. pneu.) [µg/mL] | MIC (E. coli Vogel) [µg/mL] | MIC (Streptococcus pneum.) [µg/mL] | MIC (Enter. cloac.) [µg/mL] | MIC (Pseu. aeru.) [µg/mL] | MIC (Prot. rettg.) [µg/mL] |
| --- | --- | --- | --- | --- | --- | --- | --- | --- | --- | --- |
| NCc1cccc(C2CCN(c3nc4c(cc3F)c(=O)c(C(=O)O)cn4C3CC3)C2)c1 (stereo not shown) [Example 6, 7-[3-[3-(Aminomethyl)phenyl]-1-pyrrolidinyl]-1-cyclopropyl-6-fluoro-1,4-dihydro-4-oxo-1,8-naphthyridine-3-carboxylic acid] | 0.013 (≈ 0.0308 µM) | 0.025 (≈ 0.0592 µM) | 0.006 (≈ 0.0142 µM) | 0.006 (≈ 0.0142 µM) | 0.05 (≈ 0.118 µM) | 0.05 (≈ 0.118 µM) | 0.006 (≈ 0.0142 µM) | 0.05 (≈ 0.118 µM) | 0.8 (≈ 1.89 µM) | 0.1 (≈ 0.237 µM) |
| NCc1ccc(C2CCN(c3c(F)c(N)c4c(=O)c(C(=O)O)cn(C5CC5)c4c3F)C2)cc1 (stereo not shown) [Example 11, 5-Amino-7-[3-[4-(aminomethyl)phenyl]-1-pyrrolidinyl]-1-cyclopropyl-6,8-difluoro-1,4-dihydro-4-oxo-3-quinolinecarboxylic acid] | 0.013 (≈ 0.0286 µM) | 0.013 (≈ 0.0286 µM) | ≤ 0.003 | 0.013 (≈ 0.0286 µM) | 0.2 (≈ 0.44 µM) | 0.1 (≈ 0.22 µM) | 0.013 (≈ 0.0286 µM) | 0.1 (≈ 0.22 µM) | 0.8 (≈ 1.76 µM) | 0.2 (≈ 0.44 µM) |
| CNCc1cccc(C2CCN(c3c(F)c(N)c4c(=O)c(C(=O)O)cn(C5CC5)c4c3F)C2)c1 (stereo not shown) [Example 13, 5-Amino-1-cyclopropyl-6,8-difluoro-1,4-dihydro-7-[3-[3-[(methylamino)methyl]phenyl]-1-pyrrolidinyl]-4-oxo-3-quinolinecarboxvlic acid] | 0.05 (≈ 0.107 µM) | 0.05 (≈ 0.107 µM) | 0.013 (≈ 0.0277 µM) | 0.05 (≈ 0.107 µM) | 0.4 (≈ 0.854 µM) | 0.2 (≈ 0.427 µM) | 0.05 (≈ 0.107 µM) | 0.2 (≈ 0.427 µM) | 1.6 (≈ 3.42 µM) | 0.8 (≈ 1.71 µM) |
| CNCc1ccc(C2CCN(c3cc4c(cc3F)c(=O)c(C(=O)O)cn4C3CC3)C2)cc1 (stereo not shown) [Example 14, 1-Cyclopropyl-6-fluoro-1,4-dihydro-7-[3-[4-[(methylamino)methyl]phenyl]-1-pyrrolidinyl]-4-oxo-3-quinolinecarboxylic acid] | 0.013 (≈ 0.0299 µM) | 0.025 (≈ 0.0574 µM) | 0.006 (≈ 0.0138 µM) | 0.013 (≈ 0.0299 µM) | 0.4 (≈ 0.918 µM) | 0.2 (≈ 0.459 µM) | 0.013 (≈ 0.0299 µM) | 0.2 (≈ 0.459 µM) | 1.6 (≈ 3.67 µM) | 0.4 (≈ 0.918 µM) |
| O=C(O)c1cn(C2CC2)c2cc(N3CCC(c4ccccn4)C3)c(F)cc2c1=O (stereo not shown) [Example 17, 1-Cyclopropyl-6-fluoro-1,4-dihydro-4-oxo-7-[3-(2-pyridinyl)-1-pyrrolidinyl]-3-quinolinecarboxylic acid] | 0.006 (≈ 0.0153 µM) | 0.05 (≈ 0.127 µM) | ≤ 0.003 | 0.05 (≈ 0.127 µM) | 0.2 (≈ 0.508 µM) | 0.1 (≈ 0.254 µM) | 0.05 (≈ 0.127 µM) | 0.1 (≈ 0.254 µM) | 0.8 (≈ 2.03 µM) | 0.2 (≈ 0.508 µM) |

The remaining molecules from weak to strong by MIC (S. aureus R), led by results:

| MIC (S. aureus R) [µg/mL] | MIC (Streptococcus faec.) [µg/mL] | MIC (S. aureus S) [µg/mL] | MIC (Streptococcus pyog.) [µg/mL] | MIC (Kleb. pneu.) [µg/mL] | MIC (E. coli Vogel) [µg/mL] | MIC (Streptococcus pneum.) [µg/mL] | MIC (Enter. cloac.) [µg/mL] | MIC (Pseu. aeru.) [µg/mL] | MIC (Prot. rettg.) [µg/mL] | Compound |
| --- | --- | --- | --- | --- | --- | --- | --- | --- | --- | --- |
| 0.05 (≈ 0.118 µM) | 0.05 (≈ 0.118 µM) | 0.013 (≈ 0.0308 µM) | 0.025 (≈ 0.0592 µM) | 0.2 (≈ 0.473 µM) | 0.1 (≈ 0.237 µM) | 0.025 (≈ 0.0592 µM) | 0.1 (≈ 0.237 µM) | 1.6 (≈ 3.79 µM) | 0.4 (≈ 0.947 µM) | NCc1ccccc1C1CCN(c2nc3c(cc2F)c(=O)c(C(=O)O)cn3C2CC2)C1 (stereo not shown) [Example 1, 7-[3-[2-(Aminomethyl)phenyl]-1-pyrrolidinyl]-1-cyclopropyl-6-fluoro-1,4-dihydro-4-oxo-1,8-naphthyridine-3-carboxylic acid] |
| 0.025 (≈ 0.0593 µM) | 0.013 (≈ 0.0308 µM) | 0.006 (≈ 0.0142 µM) | ≤ 0.003 | 0.1 (≈ 0.237 µM) | 0.05 (≈ 0.119 µM) | ≤ 0.003 | 0.05 (≈ 0.119 µM) | 0.8 (≈ 1.9 µM) | 0.1 (≈ 0.237 µM) | NCc1cccc(C2CCN(c3cc4c(cc3F)c(=O)c(C(=O)O)cn4C3CC3)C2)c1 (stereo not shown) [Example 7, 7-[3-[3-(Aminomethyl)phenyl]-1-pyrrolidinyl]-1-cyclopropyl-6-fluoro-1,4-dihydro-4-oxo-3-quinolinecarboxylic acid] |
| 0.025 (≈ 0.0549 µM) | 0.025 (≈ 0.0549 µM) | 0.013 (≈ 0.0285 µM) | 0.025 (≈ 0.0549 µM) | 0.1 (≈ 0.22 µM) | 0.05 (≈ 0.11 µM) | 0.025 (≈ 0.0549 µM) | 0.05 (≈ 0.11 µM) | 1.6 (≈ 3.51 µM) | 0.2 (≈ 0.439 µM) | NCc1cccnc1C1CCN(c2c(F)c(N)c3c(=O)c(C(=O)O)cn(C4CC4)c3c2F)C1 (stereo not shown) [Example 29, 5-Amino-7-[3-[3-(aminomethyl)-2-pyridinyl]-1-pyrrolidinyl]-1-cyclopropyl-6,8-difluoro-1,4-dihydro-4-oxo-3-quinolinecarboxylic acid] |
| 0.013 (≈ 0.0286 µM) | 0.013 (≈ 0.0286 µM) | ≤ 0.003 | 0.013 (≈ 0.0286 µM) | 0.1 (≈ 0.22 µM) | 0.05 (≈ 0.11 µM) | 0.006 (≈ 0.0132 µM) | 0.05 (≈ 0.11 µM) | 0.8 (≈ 1.76 µM) | 0.2 (≈ 0.44 µM) | NCc1cccc(C2CCN(c3c(F)c(N)c4c(=O)c(C(=O)O)cn(C5CC5)c4c3F)C2)c1 (stereo not shown) [Example 8, 5-Amino-7-[3-[3-(aminomethyl)phenyl]-1-pyrrolidinyl]-1-cyclopropyl-6,8-difluoro-1,4-dihydro-4-oxo-3-quinolinecarboxylic acid] |
| 0.013 (≈ 0.0277 µM) | 0.025 (≈ 0.0534 µM) | 0.006 (≈ 0.0128 µM) | 0.013 (≈ 0.0277 µM) | 0.4 (≈ 0.854 µM) | 0.2 (≈ 0.427 µM) | 0.013 (≈ 0.0277 µM) | 0.2 (≈ 0.427 µM) | 1.6 (≈ 3.42 µM) | 0.4 (≈ 0.854 µM) | CNCc1ccc(C2CCN(c3c(F)c(N)c4c(=O)c(C(=O)O)cn(C5CC5)c4c3F)C2)cc1 (stereo not shown) [Example 15, 5-Amino-1-cyclopropyl-6,8-difluoro-1,4-dihydro-7-[3-[4-[(methylamino)methyl]phenyl]-1-pyrrolidinyl]-4-oxo-3-quinolinecarboxylic acid] |
| 0.006 (≈ 0.0153 µM) | 0.025 (≈ 0.0635 µM) | ≤ 0.003 | 0.025 (≈ 0.0635 µM) | 0.2 (≈ 0.508 µM) | 0.1 (≈ 0.254 µM) | 0.025 (≈ 0.0635 µM) | 0.1 (≈ 0.254 µM) | 0.8 (≈ 2.03 µM) | 0.2 (≈ 0.508 µM) | O=C(O)c1cn(C2CC2)c2cc(N3CCC(c4cccnc4)C3)c(F)cc2c1=O (stereo not shown) [Example 21, 1-Cyclopropyl-6-fluoro-1,4-dihydro-4-oxo-7-[3-(3-pyridinyl)-1-pyrrolidinyl]-3-quinolinecarboxylic acid] |
| 0.006 (≈ 0.0141 µM) | 0.05 (≈ 0.117 µM) | ≤ 0.003 | 0.025 (≈ 0.0586 µM) | 0.2 (≈ 0.469 µM) | 0.1 (≈ 0.235 µM) | 0.025 (≈ 0.0586 µM) | 0.1 (≈ 0.235 µM) | 1.6 (≈ 3.75 µM) | 0.2 (≈ 0.469 µM) | Nc1c(F)c(N2CCC(c3cccnc3)C2)c(F)c2c1c(=O)c(C(=O)O)cn2C1CC1 (stereo not shown) [Example 22, 5-Amino-1-cyclopropyl-6,8-difluoro-1,4-dihydro-4-oxo-7-[3-(3-pyridinyl)-1-pyrrolidinyl]-3-quinoline-carboxylic acid] |
| 0.006 (≈ 0.0141 µM) | 0.05 (≈ 0.117 µM) | ≤ 0.003 | 0.05 (≈ 0.117 µM) | 0.4 (≈ 0.938 µM) | 0.2 (≈ 0.469 µM) | 0.05 (≈ 0.117 µM) | 0.2 (≈ 0.469 µM) | 3.1 (≈ 7.27 µM) | 0.4 (≈ 0.938 µM) | Nc1c(F)c(N2CCC(c3ccncc3)C2)c(F)c2c1c(=O)c(C(=O)O)cn2C1CC1 (stereo not shown) [Example 25, 5-Amino-1-cyclopropyl-6,8-difluoro-1,4-dihydro-4-oxo-7-[3-(4-pyridinyl)-1-pyrrolidinyl]-3-quinoline-carboxylic acid] |
